Measurements from publication PMC12350170, “Structural basis for the synergistic assembly of the snRNA export complex” (Nature Structural & Molecular Biology, 2025).

Tests used:
Assay type in all cases: binding
[1] = target: T1, Ran (RanGTP) in the snRNA export complex with CRM1, PHAX, CBC (Homo sapiens, UniProt P62826, Q69L); experiment: cryo-EM structure of the complex; settings: Mg2+ present; Ran nucleotide site; complex with CRM1, phosphorylated PHAX, CBC and capped RNA
T1 construct: Ran Q69L as His-tag fusion from E. coli, loaded with GTP; His-CRM1; CK2-phosphorylated full-length PHAX; CBP80ΔNLS–CBP20; capped 14-nt RNA; with Exportin-1; Phosphorylated adapter RNA export protein

CBC (CBP80ΔNLS–CBP20) = target: T2, CBC (CBP80ΔNLS–CBP20) (Homo sapiens, UniProt P52298); experiment: isothermal titration calorimetry
T2 construct: gene NCBP2; heterodimer; CBP80ΔNLS (lacks N-terminal 19 residues) from High Five insect cells; CBP20 as His-GST fusion from E. coli, tag cleaved by TEV
T2 sequence (P52298 2-156): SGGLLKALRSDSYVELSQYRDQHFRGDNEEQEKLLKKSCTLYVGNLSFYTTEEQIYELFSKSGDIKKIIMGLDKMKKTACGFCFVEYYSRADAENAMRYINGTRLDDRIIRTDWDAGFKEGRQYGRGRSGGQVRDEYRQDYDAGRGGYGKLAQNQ
T2 sequence (Q09161 20-790 partner): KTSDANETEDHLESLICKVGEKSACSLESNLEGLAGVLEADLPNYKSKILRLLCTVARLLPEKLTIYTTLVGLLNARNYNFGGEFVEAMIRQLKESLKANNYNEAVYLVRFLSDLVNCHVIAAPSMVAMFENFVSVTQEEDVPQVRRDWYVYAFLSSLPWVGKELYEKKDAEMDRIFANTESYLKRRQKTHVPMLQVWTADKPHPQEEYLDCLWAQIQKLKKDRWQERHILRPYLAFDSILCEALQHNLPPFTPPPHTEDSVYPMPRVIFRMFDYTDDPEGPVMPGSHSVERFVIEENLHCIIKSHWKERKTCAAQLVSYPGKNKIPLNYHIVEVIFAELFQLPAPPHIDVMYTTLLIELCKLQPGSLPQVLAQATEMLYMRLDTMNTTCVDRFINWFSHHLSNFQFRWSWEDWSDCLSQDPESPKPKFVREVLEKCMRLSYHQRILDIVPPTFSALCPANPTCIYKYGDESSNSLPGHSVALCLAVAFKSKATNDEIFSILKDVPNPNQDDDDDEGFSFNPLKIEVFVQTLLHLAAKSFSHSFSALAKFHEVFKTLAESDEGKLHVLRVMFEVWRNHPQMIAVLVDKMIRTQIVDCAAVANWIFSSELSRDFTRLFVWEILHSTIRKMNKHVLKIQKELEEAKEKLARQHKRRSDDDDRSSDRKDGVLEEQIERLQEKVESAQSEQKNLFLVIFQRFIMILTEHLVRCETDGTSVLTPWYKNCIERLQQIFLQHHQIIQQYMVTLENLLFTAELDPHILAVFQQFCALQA

[2] = target: T3, CBC in complex with PHAX^103–196 (Homo sapiens, UniProt P52298); experiment: isothermal titration calorimetry
T3 construct: gene NCBP2; CBC (CBP80ΔNLS lacking N-terminal 19 residues; CBP20, tag cleaved) plus PHAX residues 103-196 made as His-MBP fusion in E. coli, not phosphorylated; Phosphorylated adapter RNA export protein
T3 sequence (Q9H814 103-196 partner, one chain of several): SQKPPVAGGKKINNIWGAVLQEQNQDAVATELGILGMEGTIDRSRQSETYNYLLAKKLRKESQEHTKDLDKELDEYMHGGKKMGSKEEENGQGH

Row | Kd (CBC (CBP80ΔNLS–CBP20)) [nM] | Kd [2] [nM] | SMILES | cryo-EM structure of the complex [1]
1 |  |  | Nc1nc2c(ncn2[C@@H]2O[C@H](COP(=O)(O)OP(=O)(O)OP(=O)(O)O)[C@@H](O)[C@H]2O)c(=O)[nH]1 [GTP] | the catalytic mutant of Ran (Q69L) bound to GTP
2 | 300 |  | C[n+]1cn([C@@H]2O[C@H](COP(=O)(O)OP(=O)(O)OP(=O)(O)O)[C@@H](O)[C@H]2O)c2nc(N)[nH]c(=O)c21 [m^7GTP] | 
3 | 96 | 100 | C[n+]1cn([C@@H]2O[C@H](COP(=O)(O)OP(=O)(O)OP(=O)(O)OC[C@H]3O[C@@H](n4cnc5c(=O)[nH]c(N)nc54)[C@H](O)[C@@H]3O)[C@@H](O)[C@H]2O)c2nc(N)[nH]c(=O)c21 [m^7GpppG] | 
